Laboratory results taken from patent US20200246403A1, “YEAST EXTRACT HAVING DIABETES PREVENTION EFFECT” (MITSUBISHI CORPORATION LIFE SCIENCES LIMITED, priority 2016, published 2020).

System: rat myoblasts (L6 cells)
Experiment: Measurement of glucose uptake activity in rat myoblasts (L6 cells), 2-NBDG fluorescence
Type: cell-based
Conditions: insulin final concentration 100 nM (positive control), 100 μM 2-NBDG, 20 minutes
Procedure: Test 1: Measurement of Glucose Uptake Activity in Rat Myoblasts (L6 Cells)
L6 cells were seeded (1×10^4 cells/well) in a 96-well plate with a D-MEM medium (Dulbecco/Vogt modified Eagle's minimal essential medium) containing 10% fetal bovine serum, and pre-cultured for 48 hours (5% CO2, 37° C.) Then, the medium was replaced with a D-MEM medium containing 2% horse serum and culture was performed for 96 hours (5% CO2, 37° C.) to induce differentiation. Subsequently, the medium was replaced with a serum-free D-MEM medium, and synchronous culture was performed for 4 hours (5% CO2, 37° C.). Thereafter, the wells were washed with a KRPH buffer (Krebs Ringer Phosphate Hepes buffer), and 100 μL of a sample solution (final concentration 1 mg/mL or 5 mg/mL) dissolved in a KRPH buffer containing 100 μM 2-NBDG (2-deoxy-2-[(7-nitro-2,1,3-benzoxadiazol-4-yl)amino]-D-glucose) was added and incubated for 20 minutes (5% […], 37° C.). […] The fluorescence intensity of 2-NBDG, as the fluorescent glucose analogue incorporated into the cells, was measured at an excitation wavelength of 470 nm and a detection wavelength of 550 nm using a microplate reader. The glucose uptake activity was determined based on the following formula as the ratio of the fluorescence intensity (FS) in the case of making the sample solution react when the fluorescence intensity (FC) of the control was taken as 100. […]

Question: With insulin as the substance, how does the Glucose uptake activity read?
Answer: significantly increased
